According to PubChem BioAssay (NCI):
Where “and” joins values, the source holds several entries; their conditions need not be identical. Equal values may be shown once.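 Grown in 96-well plates, cells were treated for 48 hours with each compound at five concentrations. Insufficient inhibition: endpoint recorded as highest concentration tested. At the GI50, growth is halved. TGI denotes the concentration required for complete inhibition of growth.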

Assays:
Experiment in all cases: NCI anticancer screen, dose series, 48 h
SK-MEL-5 melanoma = tested on: SK-MEL-5 melanoma
HT29 colon = tested on: HT29 colon
786-0 renal = tested on: 786-0 renal
U251 CNS = tested on: U251 CNS
EKVX NSCLC = tested on: EKVX NSCLC
OVCAR-4 ovarian = tested on: OVCAR-4 ovarian
HCC-2998 colon = tested on: HCC-2998 colon
SF-295 CNS = tested on: SF-295 CNS
LOX IMVI melanoma = tested on: LOX IMVI melanoma
SNB-75 CNS = tested on: SNB-75 CNS

Compound | GI50 (SK-MEL-5 melanoma) | TGI (SK-MEL-5 melanoma) | GI50 (HT29 colon) | TGI (HT29 colon) | GI50 (786-0 renal) | TGI (786-0 renal) | GI50 (U251 CNS) | TGI (U251 CNS) | GI50 (EKVX NSCLC) | TGI (EKVX NSCLC) | GI50 (OVCAR-4 ovarian) | TGI (OVCAR-4 ovarian) | GI50 (HCC-2998 colon) | TGI (HCC-2998 colon) | GI50 (SF-295 CNS) | TGI (SF-295 CNS) | GI50 (LOX IMVI melanoma) | TGI (LOX IMVI melanoma) | GI50 (SNB-75 CNS) | TGI (SNB-75 CNS)
COc1ccc(NC(=O)c2sc3nc(C)c(C(O)c4ccccc4)cc3c2N)cc1 (configuration not stated) | 1.66 µM | 4.04 µM | 2.81 µM | 88.8 µM | 4.63 µM | > 100 µM | 3.58 µM | > 100 µM | 4.38 µM | > 100 µM | 3.72 µM | > 100 µM | 2.48 µM | 24.1 µM | 1.25 µM | 18.2 µM | 4.25 µM | > 100 µM | 1.49 µM | 7.22 µM
C1=Cc2nc1c(-c1ccncc1)c1ccc([n-]1)c(-c1ccncc1)c1nc(c(-c3ccncc3)c3ccc([n-]3)c2-c2ccncc2)C=C1.[Zn+2] | – | > 100 µM | – | > 100 µM | – | > 100 µM | – | > 100 µM | – | > 100 µM | – | > 100 µM | – | > 100 µM | – | > 100 µM | – | > 100 µM | – | > 100 µM
CN(C)CCCc1c[nH]c2ccccc12 | – | > 100 µM | – | > 100 µM | – | > 100 µM | – | > 100 µM | – | > 100 µM | – | > 100 µM | – | > 100 µM | – | > 100 µM | – | > 100 µM | – | > 100 µM
O=C1C(=O)C(Br)(Br)C(Br)=C1Br | – | 29.4 µM | – | 38.5 µM | – | 32.1 µM | – | 79.8 µM | – | 54.8 µM | – | 69.6 µM | – | 62 µM | – | > 100 µM | – | 31.9 µM | – | 27.7 µM
CCC(=C/[C@H](C)C/C=C/C(C)=C/[C@@H](C)C(=O)[C@@H](C)[C@H](O)[C@@H](C)CC)/C=C/[C@H]1OC(=O)C=C[C@H]1C | < 0.01 µM | 0.0437 µM | < 0.01 µM | 1.2 µM | < 0.01 µM | 0.642 µM | < 0.01 µM | 1.35 µM | 0.288 µM | 11.6 µM | < 0.01 µM | 1.29 µM | < 0.01 µM | < 0.01 µM | < 0.01 µM | 1.36 µM | < 0.01 µM | 1.11 µM | < 0.01 µM | 0.0854 µM
COc1cc(/C=C2\COc3ccc(O)c(O)c3C2=O)cc(OC)c1 | 1.72 µM | 3.13 µM | 2.78 µM | 8.39 µM | 1.54 µM | 3.78 µM | 0.861 µM | 4.09 µM | 2.12 µM | 5.53 µM | 2.2 µM | 14.2 µM | 1.85 µM | 3.5 µM | 3.01 µM | 9.09 µM | 1.28 µM | 2.67 µM | 2.42 µM | 10.9 µM
COc1cc2nc(Nc3cccc(F)c3)nc(Nc3cc(C)[nH]n3)c2cc1OC | 1.44 µM | 2.84 µM | 1.99 µM | 4.93 µM | 1.75 µM | 3.45 µM | 1.82 µM | 3.73 µM | 1.75 µM | 3.41 µM | 1.68 µM | 3.49 µM | 1.8 µM | 3.28 µM | 1.58 µM | 3.04 µM | 1.72 µM | 3.11 µM | 1.52 µM | 2.95 µM
C=C1C(=O)O[C@H]2[C@H]1CC/C(COC(=O)NCc1c[nH]c3ccc(Cl)cc13)=C\CC[C@@]1(C)O[C@@H]21 | 1.64 µM | 3.01 µM | 0.625 µM | 2.12 µM | 1.07 µM | 2.49 µM | 1.66 µM | 3.08 µM | 1.58 µM | 3 µM | 1.45 µM | 3.16 µM | 1.96 µM | 3.69 µM | 1.81 µM | 4.09 µM | 0.633 µM | 2.03 µM | 1.29 µM | 2.57 µM
COc1ccc2nc3ccccc3c(NCCCCCCN(C)CCCl)c2c1 | – | 2.16 µM | – | 2.38 µM | – | 1.53 µM | – | 1.75 µM | – | 3.45 µM | – | 3.03 µM | – | 1.98 µM | – | 2.88 µM | – | 0.515 µM | – | 2.73 µM
CCN(CC)C(=O)COc1ccc(Br)cc1Br | – | > 100 µM | – | > 100 µM | – | > 100 µM | – | > 100 µM | – | 58 µM | – | > 100 µM | – | > 100 µM | – | > 100 µM | – | > 100 µM | – | > 100 µM
COC1=CC(c2ccc[nH]2)=N/C1=C\c1[nH]c(C)c(C(=O)CCCCC(=O)Nc2ccccc2)c1C | 4.22 µM | 11.6 µM | 0.693 µM | 2.52 µM | 4.79 µM | 12.6 µM | 1.29 µM | 2.56 µM | 2.64 µM | 19.8 µM | 1.56 µM | 3.96 µM | 3.78 µM | 16.7 µM | 6.11 µM | 29.2 µM | 1.13 µM | 2.34 µM | 2.8 µM | 11.4 µM
Cc1nc(NC(=O)CCCN2C(=O)c3cccc4cccc(c34)C2=O)sc1C(=O)Nc1cc(C(=O)NCCCN(C)C)n(C)c1 | > 100 µM | > 100 µM | > 100 µM | > 100 µM | > 100 µM | > 100 µM | > 100 µM | > 100 µM | > 100 µM | > 100 µM | 94.8 µM | > 100 µM | > 100 µM | > 100 µM | > 100 µM | > 100 µM | > 100 µM | > 100 µM | > 100 µM | > 100 µM
COc1ccc(/C=C/c2n[nH]c3ccc(N4CCOC4=O)cc23)cc1 | 2.15 µM | 5.66 µM | 1.49 µM | > 100 µM | 3.76 µM | > 100 µM | 2.51 µM | > 100 µM | 3.39 µM | 36.1 µM | 5.06 µM | > 100 µM | 2.3 µM | 7.17 µM | 3.44 µM | 29.2 µM | 2.52 µM | 27.7 µM | 2.5 µM | 18 µM
Cc1ccc(S(=O)(=O)N2CCc3ccc(O)c4c3C2Cc2cc(Cl)ccc2-4)cc1 (configuration not stated) | 1.55 µM | 5.1 µM | 5.61 µM | 10.8 µM | 2.3 µM | 9.59 µM | 0.972 µM | 3.77 µM | 2.52 µM | 28.8 µM | 1.53 µM | 7.51 µM | 1.65 µM | 5.37 µM | 1.37 µM | 6.12 µM | 1.84 µM | 6.02 µM | 0.639 µM | 2.42 µM
Cc1ccc(Cl)c(NC(=O)C(=O)C(C(=O)c2ccncc2)C2OC(=O)c3ccccc32)c1 (configuration not stated) | – | > 100 µM | – | > 100 µM | – | > 100 µM | – | > 100 µM | – | > 100 µM | – | > 100 µM | – | > 100 µM | – | > 100 µM | – | > 100 µM | – | > 100 µM
Cc1cc(Cl)ccc1N=C1NC(=O)C(CC(=O)Nc2ccc(Cl)cc2Cl)S1 (configuration not stated) | – | > 100 µM | – | > 100 µM | – | > 100 µM | – | > 100 µM | – | > 100 µM | – | > 100 µM | – | > 100 µM | – | > 100 µM | – | > 100 µM | – | > 100 µM
C[C@@]12CCC(=O)C=C1CC[C@H]1C2=CC[C@]2(C)C1CC[C@@]2(C)O (some centres not stated) | – | > 100 µM | – | > 100 µM | – | > 100 µM | – | > 100 µM | – | > 100 µM | – | > 100 µM | – | > 100 µM | – | > 100 µM | – | > 100 µM | – | > 100 µM
COc1ccc(-c2ccc(C3CC(c4ccc(Cl)cc4)=NN3)o2)c([N+](=O)[O-])c1 (configuration not stated) | > 100 µM | > 100 µM | > 100 µM | > 100 µM | > 100 µM | > 100 µM | > 100 µM | > 100 µM | > 100 µM | > 100 µM | > 100 µM | > 100 µM | > 100 µM | > 100 µM | 43.5 µM | > 100 µM | > 100 µM | > 100 µM | > 100 µM | > 100 µM
NS(=O)(=O)c1ccc(CCN=C=S)cc1 | 2.14 µM | 4.89 µM | 2.54 µM | 6.66 µM | 1.71 µM | 3.34 µM | 1.94 µM | 4.13 µM | 2.35 µM | 6.23 µM | 1.9 µM | 4.15 µM | 1.88 µM | 3.55 µM | 14.6 µM | 27.8 µM | 1.92 µM | 3.72 µM | 1.16 µM | 3.16 µM
Nc1c(-c2ccc(Cl)cc2Cl)[n+]([O-])c2ccccc2[n+]1[O-] | – | > 100 µM | – | > 100 µM | – | > 100 µM | – | > 100 µM | – | > 100 µM | – | > 100 µM | – | > 100 µM | – | > 100 µM | – | > 100 µM | – | > 100 µM
CS(=O)(=O)Nc1ccc(Nc2c3ccccc3nc3ccccc23)cc1 | – | 10.4 µM | – | 20.5 µM | – | 17.8 µM | – | 13.8 µM | – | 29.6 µM | – | 17.4 µM | – | 27 µM | – | 14.6 µM | – | 13.9 µM | – | 19.1 µM
CO[C@@H]1[C@H](OC(=O)NC(=O)CCl)CC[C@]2(CO2)[C@H]1[C@@]1(C)O[C@@H]1CC=C(C)C | 3.87 µM and 12.3 µM | 24.2 µM and 40.7 µM | 8.62 µM and 20.5 µM | 27.5 µM and 88.9 µM | – | 30 µM and 47.7 µM | 4.98 µM and 0.575 µM | 20.8 µM and 13.3 µM | 22.4 µM | 35.8 µM and 52.4 µM | 25.9 µM | 39.1 µM and 176 µM | – | 10.8 µM | 6.62 µM and 4.21 µM | 18.7 µM and 38 µM | 2.76 µM | 25.2 µM and 34.6 µM | – | 24.7 µM and 200 µM
